Experimental data from patent publication US20210094973A1, “HETEROCYCLIC COMPOUNDS” (Hoffmann-La Roche Inc., priority 2019, published 2021).

biological target: T1, MAGL (Homo sapiens, UniProt Q99685); assay: 2-AG assay (MAGL inhibitory activity, hydrolysis of 2-arachidonoylglycerol followed by mass spectrometry); assay type: biochemical; settings: 15 min preincubation at RT, 8 μM 2-arachidonoylglycerol, 30 min at RT, arachidonic acid by MS
T1 sequence (Q99685 1-303): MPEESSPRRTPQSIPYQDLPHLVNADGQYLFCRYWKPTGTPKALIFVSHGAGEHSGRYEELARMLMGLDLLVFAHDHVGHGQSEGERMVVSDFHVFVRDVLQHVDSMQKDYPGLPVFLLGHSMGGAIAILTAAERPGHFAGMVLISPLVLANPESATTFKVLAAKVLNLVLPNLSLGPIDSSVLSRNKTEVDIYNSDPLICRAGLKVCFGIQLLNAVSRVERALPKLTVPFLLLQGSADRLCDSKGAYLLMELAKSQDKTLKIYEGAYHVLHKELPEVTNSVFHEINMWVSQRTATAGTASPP
Protocol: Compounds were profiled for MAGL inhibitory activity by determining the enzymatic activity by following the hydrolysis of the natural substrate 2-arachidonoylglycerol (2-AG) resulting in arachidonic acid, which can be followed by mass spectrometry. This assay is hereinafter abbreviated “2-AG assay”.
The 2-AG assay was carried out in 384 well assay plates (PP, Greiner Cat #784201) in a total volume of 20 μL. Compound dilutions were made in 100% DMSO (VWR Chemicals 23500.297) in a polypropylene plate in 3-fold dilution steps to give a final concentration range in the assay from 12.5 μM to […]. 0.25 μL compound dilutions (100% DMSO) were added to 9 μL MAGL in assay buffer (50 mM TRIS (GIBCO, 15567-027), 1 mM EDTA (Fluka, 03690-100 mL), 0.01% (v/v) Tween. After shaking, the plate was incubated for 15 min at RT. To start the reaction, 10 μL 2-arachidonoylglycerol in assay buffer was added. The final concentrations in the assay was […] and 8 μM 2-arachidonoylglyerol. After shaking and 30 min incubation at RT, the reaction was quenched by the addition of 40 μL of ACN containing 4 μM of d8-arachidonic acid. The amount of arachidonic acid was traced by an online SPE system (Agilent Rapidfire) coupled to a triple quadrupole mass spectrometer (Agilent 6460). A C18 SPE cartridge (G9205A) was used in an ACN/water liquid setup. The mass spectrometer was operated in negative electrospray mode following the mass transitions 303.1→259.1 for arachidonic acid and 311.1→267.0 for d8-arachidonic acid. The activity of the compounds was calculated based on the ratio of intensities [arachidonic acid/d8-arachidonic acid].

In order of rising IC50:
1. (4aR,8aS)-6-[rel-(3R,4R)-4-[(2-chloro-4-fluoro-phenoxy)methyl]-3-methyl-piperidine-1-carbonyl]-4,4a,5,7,8,8a-hexahydropyrido[4,3-b][1,4]oxazin-3-one [Example 39]  1.9 nM
2. O=C1CO[C@H]2CCN(C(=O)N3CCC(Cc4ccc(C(F)(F)F)c(-c5ccccc5)c4)CC3)C[C@H]2N1 [Example 35, (4aR,8aS)-6-[4-[[3-Phenyl-4-(trifluoromethyl)phenyl]methyl]piperidine-1-carbonyl]-4,4a,5,7,8,8a-hexahydropyrido[4,3-b][1,4]oxazin-3-one]  4.6 nM
3. O=C1CO[C@H]2CCN(C(=O)N3CCC(OCc4ccc(C(F)(F)F)cc4Cl)CC3)C[C@H]2N1 [Example 26, (4aR,8aS)-6-(4-((2-chloro-4-(trifluoromethyl)benzyl)oxy)piperidine-1-carbonyl)hexahydro-2H-pyrido[4,3-b][1,4]oxazin-3(4H)-one]  5.2 nM
4. O=C1CO[C@H]2CCN(C(=O)N3CC(OCc4ccc(S(F)(F)(F)(F)F)cc4)C3)C[C@H]2N1 [Example 31, (4aR,8aS)-6-(3-((4-(Pentafluoro-16-sulfanyl)benzyl)oxy)azetidine-1-carbonyl)hexahydro-2H-pyrido[4,3-b][1,4]oxazin-3(4H)-one]  5.8 nM
5. O=C1CO[C@H]2CCN(C(=O)N3CC(OCc4ccc(Cl)cc4OC(F)(F)F)C3)C[C@H]2N1 [Example 33, (4aR,8aS)-6-(3-((4-Chloro-2-(trifluoromethoxy)benzyl)oxy)azetidine-1-carbonyl)hexahydro-2H-pyrido[4,3-b][1,4]oxazin-3(4H)-one]  5.9 nM
6. (4aR,8aS)-6-[rel-(3R,4R)-4-[(2-chloro-4-fluoro-phenoxy)methyl]-3-methyl-piperidine-1-carbonyl]-4,4a,5,7,8,8a-hexahydropyrido[4,3-b][1,4]oxazin-3-one [Example 38]  6.4 nM
7. Cc1ccc(C(F)(F)F)cc1COC1CN(C(=O)N2CC[C@@H]3OCC(=O)N[C@@H]3C2)C1 [Example 34, (4aR,8aS)-6-(3-((2-Methyl-5-(trifluoromethyl)benzyl)oxy)azetidine-1-carbonyl)hexahydro-2H-pyrido[4,3-b][1,4]oxazin-3(4H)-one]  8 nM
8. O=C1CO[C@H]2CCN(C(=O)N3CCC(Cc4ccc(C(F)(F)F)cc4C(F)(F)F)CC3)C[C@H]2N1 [Example 36, (4aR,8aS)-6-[4-[[2,4-bis(Trifluoromethyl)phenyl]methyl]piperidine-1-carbonyl]-4,4a,5,7,8,8a-hexahydropyrido[4,3-b][1,4]oxazin-3-one]  9.4 nM
9. O=C1CO[C@H]2CCN(C(=O)N3CC(OCc4cc(Cl)cc(Cl)c4)C3)C[C@H]2N1 [Example 22, (4aR,8aS)-6-(3-((3,5-Dichlorobenzyl)oxy)azetidine-1-carbonyl)hexahydro-2H-pyrido[4,3-b][1,4]oxazin-3(4H)-one]  13.4 nM
10. O=C1CO[C@H]2CCN(C(=O)N3CC(OCc4ccccc4OC(F)(F)F)C3)C[C@H]2N1 [Example 32, (4aR,8aS)-6-(3-((2-(Trifluoromethoxy)benzyl)oxy)azetidine-1-carbonyl)hexahydro-2H-pyrido[4,3-b][1,4]oxazin-3(4H)-one]  22.5 nM
11. O=C1CO[C@H]2CCN(C(=O)N3CC(OCc4ccc(OC(F)(F)F)cc4)C3)C[C@H]2N1 [Example 44, (4aR,8aS)-6-(3-((4-(Trifluoromethoxy)benzyl)oxy)azetidine-1-carbonyl)hexahydro-2H-pyrido[4,3-b][1,4]oxazin-3(4H)-one]  23.6 nM
12. O=C1CO[C@H]2CCN(C(=O)N3CC(OCc4c(Cl)cccc4Cl)C3)C[C@H]2N1 [Example 21, (4aR,8aS)-6-(3-((2,6-Dichlorobenzyl)oxy)azetidine-1-carbonyl)hexahydro-2H-pyrido[4,3-b][1,4]oxazin-3(4H)-one]  27.8 nM
13. Cc1cc(CC2CCN(C(=O)N3CC[C@@H]4OCC(=O)N[C@@H]4C3)CC2)cnc1C(F)(F)F [Example 37, (4aR,8aS)-6-(4-((5-Methyl-6-(trifluoromethyl)pyridin-3-yl)methyl)piperidine-1-carbonyl)hexahydro-2H-pyrido[4,3-b][1,4]oxazin-3(4H)-one]  31.7 nM
14. O=C1CO[C@H]2CCN(C(=O)N3CC(OCc4ccc(F)cc4C(F)(F)F)C3)C[C@H]2N1 [Example 49, (4aR,8aS)-6-[3-[[4-Fluoro-2-(trifluoromethyl)phenyl]methoxy]azetidine-1-carbonyl]-4,4a,5,7,8,8a-hexahydropyrido[4,3-b][1,4]oxazin-3-one]  34 nM
15. O=C1CO[C@H]2CCN(C(=O)N3CC(OCc4ccc(OC(F)F)cc4)C3)C[C@H]2N1 [Example 40, (4aR,8aS)-6-(3-((4-(Difluoromethoxy)benzyl)oxy)azetidine-1-carbonyl)hexahydro-2H-pyrido[4,3-b][1,4]oxazin-3(4H)-one]  46.9 nM
16. O=C1CO[C@H]2CCN(C(=O)N3CCC(OCc4ccc(C(F)(F)F)cc4)CC3)C[C@H]2N1 [Example 24, (4aR,8aS)-6-(4-((4-(Trifluoromethyl)benzyl)oxy)piperidine-1-carbonyl)hexahydro-2H-pyrido[4,3-b][1,4]oxazin-3(4H)-one]  62.1 nM
17. O=C1CO[C@H]2CCN(C(=O)N3CCC(OCc4ccc(F)cc4Cl)CC3)C[C@H]2N1 [Example 25, (4aR,8aS)-6-(4-((2-Chloro-4-fluorobenzyl)oxy)piperidine-1-carbonyl)hexahydro-2H-pyrido[4,3-b][1,4]oxazin-3(4H)-one]  72.5 nM
18. COc1cc(COC2CN(C(=O)N3CC[C@@H]4OCC(=O)N[C@@H]4C3)C2)ccc1F [Example 30, (4aR,8aS)-6-(3-((4-Fluoro-3-methoxybenzyl)oxy)azetidine-1-carbonyl)hexahydro-2H-pyrido[4,3-b][1,4]oxazin-3(4H)-one]  77.3 nM
19. O=C1CO[C@H]2CCN(C(=O)N3CCC(c4ccnnc4C(F)(F)F)CC3)C[C@H]2N1 [Example 47, (4aR,8aS)-6-(4-(3-(Trifluoromethyl)pyridazin-4-yl)piperidine-1-carbonyl)hexahydro-2H-pyrido[4,3-b][1,4]oxazin-3(4H)-one]  90.9 nM
20. Cc1c(CC2CCN(C(=O)N3CC[C@@H]4OCC(=O)N[C@@H]4C3)CC2)cncc1C1CC1 [Example 23, (4aR,8aS)-6-(4-((5-Cyclopropyl-4-methylpyridin-3-yl)methyl)piperidine-1-carbonyl)hexahydro-2H-pyrido[4,3-b][1,4]oxazin-3(4H)-one]  119 nM
21. O=C1CO[C@H]2CCN(C(=O)N3CC(OCc4ccc(C(F)(F)F)cn4)C3)C[C@H]2N1 [Example 43, (4aR,8aS)-6-(3-((5-(Trifluoromethyl)pyridin-2-yl)methoxy)azetidine-1-carbonyl)hexahydro-2H-pyrido[4,3-b][1,4]oxazin-3(4H)-one]  159 nM
22. CC(Oc1ccc(C(F)(F)F)cc1Cl)C1CN(C(=O)N2CC[C@H]3OCC(=O)N[C@H]3C2)C1 (stereo partly drawn) [Example 46, (4aS,8aR)-6-(3-(1-(2-Chloro-4-(trifluoromethyl)phenoxy)ethyl)azetidine-1-carbonyl)hexahydro-2H-pyrido[4,3-b][1,4]oxazin-3(4H)-one]  225 nM
23. O=C1CO[C@H]2CCN(C(=O)[C@H]3C[C@H](OCc4ccc(C(F)(F)F)cc4Cl)C3)C[C@H]2N1 [Example 42, (4aR,8aS)-6-(3-((2-Chloro-4-(trifluoromethyl)benzyl)oxy)cyclobutane-1-carbonyl)hexahydro-2H-pyrido[4,3-b][1,4]oxazin-3(4H)-one]  261 nM
24. O=C1CO[C@H]2CCN(C(=O)N3CC(c4nnc(-c5ccc(F)cc5F)[nH]4)C3)C[C@H]2N1 [Example 48, (4aR,8aS)-6-[3-[5-(2,4-Difluorophenyl)-4H-1,2,4-triazol-3-yl]azetidine-1-carbonyl]-4,4a,5,7,8,8a-hexahydropyrido[4,3-b][1,4]oxazin-3-one]  333 nM
25. O=C1CO[C@H]2CCN(C(=O)C3CC(OCc4ccc(C(F)(F)F)cc4Cl)C3)C[C@H]2N1 (stereo partly drawn) [Example 41, (4aR,8aS)-6-(3-((2-Chloro-4-(trifluoromethyl)benzyl)oxy)cyclobutane-1-carbonyl)hexahydro-2H-pyrido[4,3-b][1,4]oxazin-3(4H)-one]  774 nM
26. O=C1CO[C@H]2CCN(C(=O)N3CC(C(=O)Nc4ccc(F)cc4Cl)C3)C[C@H]2N1 [Example 45, N-(2-chloro-4-fluorophenyl)-1-((4aR,8aS)-3-oxooctahydro-2H-pyrido[4,3-b][1,4]oxazine-6-carbonyl)azetidine-3-carboxamide]  1250 nM
